{
  "source": "patent EP1852441B1",
  "about": "“Agents that modulate EPH receptor activity” (The Burnham Institute, priority 2002, dated 2004)",
  "key": {"MAP kinase": {"tested_on": "MAP kinase", "experiment": "MAP kinase phosphorylation in HUVE cells (immunoblot)", "assay_type": "cell-based, human", "settings": "non-serum starved HUVE cells", "text": "(§1) Cell lysates were used to immunoprecipitate EphA2 as described above or probed by immunoblotting with anti-phospho-p44/p42 MAPK antibody (Cell Signaling Technology, Beverly, MA) followed by an anti-mouse IgG peroxidase-conjugated antibody (Amersham) and re-probed with an anti-ERK2 antibody (Santa Cruz Biotechnology, Santa Cruz, CA) followed by a secondary anti-rabbit IgG peroxidase-conjugated antibody (Amersham). Erk2 (p42 MAP kinase) is the major phosphorylated form present. EphA2 was immunoprecipitated (IP) and probed by immunoblotting with anti-ghosphotyrosine (PTyr) or anti-EphA2 antibodies."}, "EphA2": {"tested_on": "EphA2", "experiment": "EphA2 tyrosine phosphorylation and MAP kinase signaling in HUVE cells", "assay_type": "cell-based, human", "settings": "in the absence of ephrin", "protocol": "Ephin-A1 Fc was cross-linked by preincubation with 0.2 µg/ml anti-human fc antibodies for 30 minutes on ice. After stimulation, the cells were lysed in modified RIPA buffer {Ogawa, K. et al. 2000 Oncogene 19: 6043-6052). Cell lysates were immunoprecipitated with 5 µg anti-EphA2 antibody (Upstate, Lake Placid, NY), separated by SDS polyacrylamide gel electrophoresis and probed by immunobloting with peroxidase-conjugated anti-phosphotyrosine antibody (Transduction Laboratories, San Diego, CA) or anti-EphA2 antibody followed by a secondary anti-mouse IgG peroxidase-conjugated antibody (Amersham).\nas §1"}, "endogenous EphA4": {"biological_target": "T1, endogenous EphA4 (Mus musculus, UniProt Q03137)", "T1 construct": "tyrosine phosphorylation of endogenous EphA4; from tissue; host or cells: mouse hippocampal slices", "T1 sequence (Q03137 20-986)": "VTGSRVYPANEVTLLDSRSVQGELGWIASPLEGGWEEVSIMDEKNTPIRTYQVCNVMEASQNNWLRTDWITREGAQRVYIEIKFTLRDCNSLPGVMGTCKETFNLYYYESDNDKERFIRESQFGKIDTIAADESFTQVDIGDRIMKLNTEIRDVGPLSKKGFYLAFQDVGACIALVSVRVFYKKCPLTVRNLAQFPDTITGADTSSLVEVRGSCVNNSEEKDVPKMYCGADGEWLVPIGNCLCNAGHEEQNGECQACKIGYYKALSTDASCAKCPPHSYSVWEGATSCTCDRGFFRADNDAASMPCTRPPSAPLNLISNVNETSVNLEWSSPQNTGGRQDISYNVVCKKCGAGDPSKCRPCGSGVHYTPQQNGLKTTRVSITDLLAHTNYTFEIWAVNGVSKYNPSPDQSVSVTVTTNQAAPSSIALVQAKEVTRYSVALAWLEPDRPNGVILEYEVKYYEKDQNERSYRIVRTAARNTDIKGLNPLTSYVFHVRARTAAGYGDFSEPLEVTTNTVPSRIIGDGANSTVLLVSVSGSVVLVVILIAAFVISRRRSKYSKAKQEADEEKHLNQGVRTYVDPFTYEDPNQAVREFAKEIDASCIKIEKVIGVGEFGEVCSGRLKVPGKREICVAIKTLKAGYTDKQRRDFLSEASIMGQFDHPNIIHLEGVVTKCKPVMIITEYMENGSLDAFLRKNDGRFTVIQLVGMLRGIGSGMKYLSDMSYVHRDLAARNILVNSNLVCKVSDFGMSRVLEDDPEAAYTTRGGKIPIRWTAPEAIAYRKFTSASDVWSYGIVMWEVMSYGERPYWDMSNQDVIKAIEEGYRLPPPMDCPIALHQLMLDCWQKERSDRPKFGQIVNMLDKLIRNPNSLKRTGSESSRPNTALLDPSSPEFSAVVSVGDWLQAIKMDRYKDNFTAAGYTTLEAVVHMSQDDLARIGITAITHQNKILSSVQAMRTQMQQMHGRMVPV", "experiment": "ephrin-A3 Fc induced EphA4 tyrosine phosphorylation in hippocampal slices (immunoblot)", "assay_type": "cell-based", "settings": "peptide together with ephrin-A3 Fc, micromolar concentrations"}, "neural crest cells [1]": {"tested_on": "neural crest cells", "experiment": "neural crest cell migration assay in trunk explants", "assay_type": "cell-based, Chick", "settings": "24 hours, 13 µM KYL peptide, 10 µg/ml EphA4-Fc", "protocol": "(§2) In this example to address whether the EphA4-binding peptides can inhibit endogenous ephrin-EphA4 physiological function, a neural crest cell migration assay (McLennan, R. & Krull, C.E. 2002 Gene Expr 10:295-305) was utilized. […] The migration of neural crest cells was determined by staining for HNK-1 for neural crest cells and ephrin-B1 to label the caudal sclerotome. […] Neural crest cells migrated properly into the rostral sclerotome in explants treated with control Fc."}, "neural crest cells [2]": {"tested_on": "neural crest cells", "experiment": "Neural crest cell migration assay in trunk explants", "assay_type": "cell-based", "settings": "13 µM peptide, 24 hours, chick trunk explants", "protocol": "as §2"}},
  "data": [
    {"compound": "CSCC[C@H](NC(=O)[C@H](CCSC)NC(=O)[C@@H]1CCCN1C(=O)[C@@H](NC(=O)[C@H](CO)NC(=O)[C@H](CC(=O)O)NC(=O)[C@@H]1CCCN1C(=O)[C@H](Cc1ccc(O)cc1)NC(=O)[C@H](C)NC(=O)[C@H](CO)NC(=O)[C@@H](N)Cc1ccc(O)cc1)C(C)C)C(=O)N[C@@H](CO)C(=O)NCC(=O)N[C@@H](CO)C(=O)NCC(=O)N[C@@H](CO)C(=O)N[C@@H](CCCCNC(=O)CCCC[C@@H]1SC[C@@H]2NC(=O)N[C@@H]21)C(=O)O", "note": "[YSA peptide]", "values": [
      {"measurement": "MAP kinase activation", "setting": "MAP kinase", "result": "suppresses MAP kinase activation"}
    ]},
    {"compound": "CSCC[C@H](NC(=O)[C@H](CCSC)NC(=O)[C@@H]1CCCN1C(=O)[C@@H](NC(=O)[C@H](CO)NC(=O)[C@H](CC(=O)O)NC(=O)[C@@H]1CCCN1C(=O)[C@H](Cc1ccc(O)cc1)NC(=O)[C@H](C)NC(=O)[C@H](CO)NC(=O)[C@@H](N)Cc1ccc(O)cc1)C(C)C)C(=O)N[C@@H](CO)C(=O)O", "note": "[YSA peptide]", "values": [
      {"measurement": "functional effect on EphA2 (tyrosine phosphorylation, suppression of MAP kinase)", "setting": "EphA2", "result": "agonist for EphA2"}
    ]},
    {"compound": "KYLPYWPVLSSL", "values": [
      {"measurement": "ephrin-A3-induced tyrosine phosphorylation of endogenous EphA4", "setting": "endogenous EphA4", "result": "antagonize"},
      {"measurement": "ephrin-A3-induced tyrosine phosphorylation of endogenous EphA4", "setting": "endogenous EphA4; listed as KYL peptide", "result": "lower concentrations than the APY and VTM peptides"},
      {"measurement": "migration of neural crest cells", "setting": "neural crest cells [1]", "result": "ectopic migration of neural crest cells into the caudal half-selerotome"}
    ]},
    {"compound": "KYLPYWPVLSSL [KYL peptide]", "values": [
      {"measurement": "migration of neural crest cells", "setting": "neural crest cells [2]", "result": "ectopic migration of neural crest cells into the caudal half-selerotome"}
    ]},
    {"compound": "VTMEAINLAFPG", "values": [
      {"measurement": "ephrin-A3-induced tyrosine phosphorylation of endogenous EphA4", "setting": "endogenous EphA4", "result": "antagonize"}
    ]}
  ]
}
